PMC12373846, “Hemoglobin as a pseudoperoxidase and drug target for oxidative stress-related diseases” (Signal Transduction and Targeted Therapy, 2025)

Key:
C57BL/6J mice = test: Arterial blood P50 and Hb concentration; assay type: in vivo, mouse; conditions: 0.1, 1 or 10 mg/kg, 24 h
Method: The mice were placed in a supine position to expose the thoracic area. The mice were anesthetized with 2.5% sevoflurane and placed in the supine position. Mechanical ventilation was provided via a custom-made face mask connected to a ventilator (Ventstar small animal ventilator R415, RWD) set to deliver room air (FiO2 = 0.21), with a respiratory rate of 180 breaths per min and a tidal volume of 10 μl/g body weight. Without a surgical incision, a 1 ml syringe was directly inserted into the heart to collect bright red arterial blood. Care was taken to avoid venous sampling, and blood was passively drawn into the syringe under physiological arterial pressure. The collected arterial blood was immediately analyzed via an i-STAT® 1 Analyzer (Abbott) with CG8+ cartridges to measure pO2 (mmHg), SO2 (%), and hemoglobin concentrations (g/dL). P₅₀ values were calculated via the following equation: P50=pO2×1−SO2/SO2^1/n, n=2.711

APP/PS1 mice = test: Hippocampal slice electrophysiology, APP/PS1 mice; assay type: in vivo, mouse; conditions: for tonic GABA current, granule cells: Fig. S10k; for sIPSC amplitude: Fig. S10l; for sIPSC frequency: Fig. S10m
Method: The mice were deeply anesthetized with 3% isoflurane followed by decapitation. The brain was quickly excised from the skull and submerged in a chilled cutting solution that contained 234 mM sucrose, 24 mM NaHCO3, 11 mM d(+)-glucose, 10 mM MgSO4, 2.5 mM KCl, […], and 0.5 mM CaCl2. Transverse hippocampi (300 µm thick) were prepared with a vibrating microtome (PRO7N; DSK) and transferred to an artificial cerebrospinal fluid (aCSF) solution that contained 130 mM NaCl, 24 mM NaHCO3, 1.25 mM NaH2PO4, 3.5 mM KCl, 1.5 mM CaCl2, 1.5 mM MgCl2, and 10 mM d(+)-glucose, pH 7.4. The slices were incubated at RT for at least 1 h before recording. All the solutions were saturated with 95% O2 and 5% CO2.
For recording of tonic GABA currents, slices were transferred to a recording chamber that was mounted on an upright Zeiss microscope and continuously perfused with aCSF solution. The slice was viewed with a 60× water immersion objective (numerical aperture = […]) with infrared differential interference contrast optics. […] Cellular morphology was visualized by a CMOS camera (Hamamatsu Photonics, Japan) and Imaging Workbench software (INDEC Biosystems). Whole-cell patch recordings were made from […] DG granule cells of the hippocampus. The holding potential was -70 mV. The pipette resistance was typically 6–8 MΩ, and the pipette was filled with an internal solution that contained (in mM): 135 CsCl; 4 NaCl; 0.5 CaCl2; 10 HEPES; 5 EGTA; 2 Mg-ATP; 0.5 Na2-GTP; 10 QX-314; pH adjusted to 7.2 with CsOH (278 to 285 mOsmol). The baseline current before the tonic current was measured was recorded with CNQX (20 µM) and D-AP5 (50 µM). The frequency and amplitude of spontaneous inhibitory postsynaptic currents before bicuculline (50 µM) administration were detected and measured via Mini Analysis (Synaptosoft, USA).
Dentate granule cell synaptic responses were elicited at a low frequency of 0.1 Hz by stimulating perforant path fibers. The stimulation was delivered over […] at intensities ranging from 0 to 1000 μA using a constant current isolation unit. A tungsten bipolar electrode was positioned in the molecular layer to stimulate the perforant path fibers. Recordings of the evoked excitatory postsynaptic potentials (EPSPs) […], and the pipette was filled with an internal solution that contained the following (in mM): 120 potassium gluconate; 10 KCl; 1 MgCl2; 0.5 EGTA; 40 HEPES; pH adjusted to 7.2 with KOH. The spiking probability was determined by the number of spikes generated per total stimulation. Electrical signals were digitized and sampled at […] with the Digidata 1550B data acquisition system and the Multiclamp 700B Amplifier (Molecular Devices, USA) via pClamp software.

aged C57BL/6J mice = test: Survival of aging mice; assay type: in vivo, mouse
Method: Aged 1-year-old C57BL/6J animals were purchased from Janvier Labs (France) and quarantined in the IBS Animal Facility for 2 weeks before the experiment. The animals were weighed, and their water consumption (in grams) was monitored for 3 days before the appropriate drug concentration was calculated for each dose group. The animals were randomly assigned to the drug/control and dose groups. […] The drug concentration (in water) was modified on the basis of changes in animal weight and corresponding water consumption every 3 months. Basal body temperature and body weight were monitored every 2 weeks. The care and handling of the animals were performed in accordance with the guidelines of the Institutional Animal Care and Use Committee of IBS (Daejeon, South Korea).

CIA DBA1 mice = test: CIA mouse model of rheumatoid arthritis; assay type: in vivo; set-up: matrix, toluidine blue (Fig. S20m) / surface regularity, toluidine blue (Fig. S20n) / CIA score at day 42 (Fig. S20c) / area under the curve (AUC) of symptom severity (Fig. S20e): scale not given here; cartilage thickness, toluidine blue (Fig. S20o): unit not given here
Method: CIA was induced in DBA1 mice by intradermal injection of type II collagen emulsified in Complete Freund's Adjuvant (CFA) on day 0, followed by a booster injection of type II collagen in Incomplete Freund's Adjuvant (IFA) on day 21. Starting from day 23, mice were administered KDS12025 in drinking ad libitum at doses of 0, 0.1, or 1 mg/kg/day until day 42. To assess joint inflammation and cartilage thickness in CIA mice, joint samples were collected and fixed in 10% formalin. The samples were then decalcified, embedded in paraffin, and sectioned. For histological evaluation, sections were stained with H&E to assess inflammation and with Toluidine Blue to evaluate cartilage thickness. The stained sections were examined under a light microscope, and images were captured for quantitative analysis of inflammatory cell infiltration and cartilage integrity.

CNc1ccc(NCCc2ccccc2OC)cc1.Cl [KDS12025, N^1-(2-methoxyphenethyl)-N^4-methylbenzene-1,4-diamine hydrochloride salt]
arterial oxygen affinity (P50) vs vehicle (C57BL/6J mice): did not differ
total Hb concentration in the blood (C57BL/6J mice): unaffected
tonic GABA current, granule cells (APP/PS1 mice; 3mpk i.p.): 4.160±0.8926
sIPSC amplitude (APP/PS1 mice; 3mpk i.p.): 36.09±4.601
sIPSC frequency (APP/PS1 mice; 3mpk i.p.): 1.355±0.2694
tonic GABA current, granule cells (APP/PS1 mice; 10mpk i.p.): 3.113±0.7279
sIPSC amplitude (APP/PS1 mice; 10mpk i.p.): 26.02±1.734
sIPSC frequency (APP/PS1 mice; 10mpk i.p.): 1.177±0.5985
spike probability across stimulation intensities (APP/PS1 mice; 100–1000 μA, 3 mg/kg/day ad libitum, Fig. 5l left): 0.7455±0.1216
increase of median survival (aged C57BL/6J mice; 0.1 and 1 mg/kg/day ad libitum from 14 months): ~ 14%
adverse effects during chronic administration (aged C57BL/6J mice; 22-month administration, 0.1 and 1 mg/kg/day): no apparent adverse effects were observed
female mice surviving at 31 months (aged C57BL/6J mice; KDS12025 groups, when all control mice had died): 46.7%
CIA score at day 42 (Fig. S20c) (CIA DBA1 mice; 0.1 MPK): 9.5±1.133
area under the curve (AUC) of symptom severity (Fig. S20e) (CIA DBA1 mice; 0.1 MPK): 54.17±15.02
body weight difference (Fig. S20p) (CIA DBA1 mice; 0.1 MPK): 93±0.5%
bone erosion, H&E (Fig. S20k) (CIA DBA1 mice; 0.1 MPK): 0.852±0.3905
cartilage destruction, H&E (Fig. S20i) (CIA DBA1 mice; 0.1 MPK): 1.5±0.2949
cartilage thickness, toluidine blue (Fig. S20o) (CIA DBA1 mice; 0.1 MPK): 0.85±0.2018
matrix, toluidine blue (Fig. S20m) (CIA DBA1 mice; 0.1 MPK): 1.504±0.3303
pannus formation, H&E (Fig. S20j) (CIA DBA1 mice; 0.1 MPK): 0.9±0.3929
paw volume (Fig. S20f) (CIA DBA1 mice; 0.1 MPK): 0.1383 ± 0.0074 mL
surface regularity, toluidine blue (Fig. S20n) (CIA DBA1 mice; 0.1 MPK): 1.352±0.3083
synovial hyperplasia, H&E (Fig. S20h) (CIA DBA1 mice; 0.1 MPK): 1.338±0.2985
CIA score at day 42 (Fig. S20c) (CIA DBA1 mice; 1 MPK): 6.583±0.7002
area under the curve (AUC) of symptom severity (Fig. S20e) (CIA DBA1 mice; 1 MPK): 25.0±9.129
body weight difference (Fig. S20p) (CIA DBA1 mice; 1 MPK): 100.7±0.4%
bone erosion, H&E (Fig. S20k) (CIA DBA1 mice; 1 MPK): 0.338±0.2928
cartilage destruction, H&E (Fig. S20i) (CIA DBA1 mice; 1 MPK): 0.966±0.2183
cartilage thickness, toluidine blue (Fig. S20o) (CIA DBA1 mice; 1 MPK): 0.652±0.1825
matrix, toluidine blue (Fig. S20m) (CIA DBA1 mice; 1 MPK): 0.988±0.2547
pannus formation, H&E (Fig. S20j) (CIA DBA1 mice; 1 MPK): 0.338±0.2928
paw volume (Fig. S20f) (CIA DBA1 mice; 1 MPK): 0.1183 ± 0.0047 mL
surface regularity, toluidine blue (Fig. S20n) (CIA DBA1 mice; 1 MPK): 0.95±0.2009
synovial hyperplasia, H&E (Fig. S20h) (CIA DBA1 mice; 1 MPK): 0.7620±0.3263
